# In PMC12259270, “Sensory neuron–expressed FGF13 controls nociceptive signaling in diabetic neuropathy models” (The Journal of Clinical Investigation, 2025):
# Residues, ends and D or L forms follow the SMILES beside them. *: point of attachment. Cbz = O=C(OCc1ccccc1)*; OtBu = CC(C)(C)O*
# Tested on: C57BL/6 mice
# Assay: Capsaicin-induced mechanical hypersensitivity (von Frey)
# Format: in vivo, mouse
# Set-up: LVF Mean / HVF Mean / MECHANICAL LVF / MECHANICAL HVF: unit not given here
# From the text: FGF13 is a neuronal gene ubiquitously transcribed in DRG neuronal subtypes ([43]–[46]). To investigate neuronal subtype enrichment of the FGF13 transcript, we examined a gene panel including FGF13, SCN9A, and several marker genes in mouse single-cell transcriptomic data (Supplemental Figure 10) ([43]–[46]). […] Critically, putative silent nociceptors marked by somatostatin (SST), and the nicotinic cholinergic receptor α-3 subunit (CHRNA3) contribute to development of inflammatory mechanical hyperalgesia ([47]). […] We next determined if PW164 modulation of the FGF13/Nav1.7 complex could suppress nociceptive behaviors in WT mice. We tested whether intraplantar (i.pl.) injection (5 μL) of PW164 altered hind paw withdrawal in response to low or high intensity von Frey filament (LVF or HVF, respectively) mechanical stimulation (Figure 3A). […] Next, we evaluated PW164’s effect on mechanical and thermal hindpaw sensitivity in capsaicin-induced nociceptive hypersensitivity models. […] Next, we performed in vivo target validation in WT mice that received an intrathecal (i.t.) injection in L5 of AAV2-shFGF13 (6 μL, viral titers 1 × 10^12 vector genomes (vg)/mL); a control group received an equal number of AAV2-shCTRL particles (Figure 3C).
# Experiments were performed on 6- to 12-week-old male C57BL/6 mice (The Jackson Laboratory, Bar Harbor, ME) housed in the AAALAC-accredited facility at the University of Texas Medical Branch. Mice were group-housed with up to 5 mice per cage on a 12-to-12-hour light–dark cycle and had access to water and food ad libitum. All protocols were approved by the Institutional Animal Care and Use Committee (IACUC) at the University of Texas Medical Branch and in accordance with the National Institutes of Health (NIH) guidelines.
# PW164 and ZL192 were dissolved in DMSO and saline in a ratio of 1:10. 0.1% capsaicin (10% ethanol, 10% Tween-20 in saline; Sigma-Aldrich). All the compounds were injected at the center of the hind paw. The control group received a DMSO-saline mixture. […]
# Bupivacaine was prepared from a 1:2 dilution with sterile 0.9% saline and locally injected in the center of the paw at 7 mg/ml.
# AAV2 viral particles packaged by the University of North Carolina Gene Therapy Core Facility (viral titer ranging […]
# Before intrathecal injections in the lumbar region, mice were maintained in an anesthetizing box with 2% isoflurane to induce unconsciousness. Six microliters of viral vector were gently injected into the CSF through a 30-gauge needle with a Hamilton syringe in the lumbar area between vertebrae L4 and L5 by gently gripping the iliac crest of the mouse and inserting the needle with an angle of 45°. The correct procedure was confirmed by the mouse’s tail reflexiv e flick.
# Assessment of mechanical sensitivity
# Mechanical sensitivity was assessed using von Frey filaments (VFF 0.1g and 1.0 g force) in mice that were either naïve or received intraplantar (i.p.) injection of capsaicin. VFFs were applied at the injection site (capsaicin or […]
# [1] = Cap + PW164 0.07 mg/mL, Time (h) 0
# [2] = Cap + PW164 0.07 mg/mL, Time (h) 0.5
# [3] = Cap + PW164 0.07 mg/mL, Time (h) 1
# [4] = Cap + PW164 0.07 mg/mL, Time (h) 1.5
# [5] = Cap + PW164 0.07 mg/mL, Time (h) 2
# [6] = Cap + PW164 0.07 mg/mL, Time (h) 3
# [7] = Cap + PW164 0.21 mg/mL, Time (h) 0
# [8] = Cap + PW164 0.21 mg/mL, Time (h) 0.5
# [9] = Cap + PW164 0.21 mg/mL, Time (h) 1
# [10] = Cap + PW164 0.21 mg/mL, Time (h) 1.5
# [11] = Cap + PW164 0.21 mg/mL, Time (h) 2
# [12] = Cap + PW164 0.21 mg/mL, Time (h) 3
# [13] = Cap + PW164 0.7 mg/mL, Time (h) 0
# [14] = Cap + PW164 0.7 mg/mL, Time (h) 0.5
# [15] = Cap + PW164 0.7 mg/mL, Time (h) 1
# [16] = Cap + PW164 0.7 mg/mL, Time (h) 1.5
# [17] = Cap + PW164 0.7 mg/mL, Time (h) 2
# [18] = Cap + PW164 0.7 mg/mL, Time (h) 3
# [19] = Figure 3 D, AAV2-Control mice after Cap, 0.h min PW164
# [20] = Figure 3 D, AAV2-Control mice after Cap, 1h PW164
# [21] = Figure 3 D, AAV2-Control mice after Cap, 2h PW164
# [22] = Figure 3 D, AAv2-shFGF13 mice after Cap, 0.h min PW164
# [23] = Figure 3 D, AAv2-shFGF13 mice after Cap, 1h PW164
# [24] = Figure 3 D, AAv2-shFGF13 mice after Cap, 2h PW164
smiles,measurement,setting,value
COC(=O)[C@@H](NC(=O)[C@H](CCC(=O)OC(C)(C)C)NC(=O)[C@H](CC(C)C)NC(=O)[C@@H]1CCCN1C(=O)OCc1ccccc1)C(C)C [PW164] (Cbz-PLE(OtBu)V-OMe),HVF Mean,[1],50
same,LVF Mean,[1],0
same,HVF Mean,[2],100
same,LVF Mean,[2],62.5
same,HVF Mean,[3],97.5
same,LVF Mean,[3],62.5
same,HVF Mean,[4],85
same,LVF Mean,[4],45
same,HVF Mean,[5],87.5
same,LVF Mean,[5],35
same,HVF Mean,[6],83.75
same,LVF Mean,[6],32.5
same,HVF Mean,[7],51.6667
same,LVF Mean,[7],0
same,HVF Mean,[8],100
same,LVF Mean,[8],60
same,HVF Mean,[9],78.3333
same,LVF Mean,[9],40
same,HVF Mean,[10],83.3333
same,LVF Mean,[10],35
same,HVF Mean,[11],90
same,LVF Mean,[11],30
same,HVF Mean,[12],98.3333
same,LVF Mean,[12],38.3333
same,HVF Mean,[13],50
same,LVF Mean,[13],0
same,HVF Mean,[14],100
same,LVF Mean,[14],61.6667
same,HVF Mean,"Cap + PW164 0.7 mg/mL, Time (h) 0.75",80
same,HVF Mean,[15],63.3333
same,LVF Mean,[15],20
same,HVF Mean,[16],63.3333
same,LVF Mean,[16],13.3333
same,HVF Mean,[17],68.3333
same,LVF Mean,[17],21.6667
same,HVF Mean,[18],86.6667
same,LVF Mean,[18],31.6667
same,HVF Mean,[19],43.3333
same,LVF Mean,[19],14.17
same,HVF Mean,[20],50
same,LVF Mean,[20],13.33
same,HVF Mean,[21],45.8333
same,LVF Mean,[21],9.17
same,HVF Mean,[22],41.5152
same,LVF Mean,[22],9.09
same,HVF Mean,[23],37.9091
same,LVF Mean,[23],9.39
same,HVF Mean,[24],41.2121
same,LVF Mean,[24],11.52
same,duration of analgesic effect,"PW164 0.7 mg/mL i.pl., naive and AAV2-shCTRL mice after capsaicin",at least 2 hours
same,mechanical sensitivity in AAV2-shFGF13 mice after capsaicin,"PW164 5 μL, 0.7mg/mL hind paw",did not further modify
same,capsaicin-induced mechanical sensitivity,"PW164 at the capsaicin injection site, 30 minutes post-capsaicin",inhibited
same,lowest concentration with dose-dependent antihyperalgesic effect,"i.pl., capsaicin model",0.21 mg/mL
